Reference: a melting point compilation (Tetko et al.; mined from patent text by program, amines drawn as free bases though some values may be those of a salt)

melting point [°C] | Compound
220 to 221 | CC(=O)NCC1CC(c2cc(F)c(N3CCN(C(=O)CO)CC3)c(F)c2)=NO1 (single isomer, unassigned; (-))
155 to 156 | CN1CC[C@@H](c2c(O)cc(O)c3c(=O)cc(-c4ccc(Br)cc4Cl)oc23)[C@@H]1CO
276 to 289 | O=C(Nc1nccs1)C1C(=O)Sc2cc(Cl)ccc21 (stereo unspecified)
234 to 235 | O=c1c(CO)c(-c2ccc(O)cc2)oc2ccccc12
121 to 122 | CC1(C)OC(=O)C(OC2CCCC2)=C1c1ccc(S(C)(=O)=O)cc1
137 to 139 | CCOC(=O)CN(CC(=O)OCC)Cc1ccc2cc(N)c3ccc(CN(CC(=O)OCC)CC(=O)OCC)nc3c2n1
151 to 152 | CC(=O)Nc1ccc(S(=O)(=O)CC(=O)C23CC4CC(CC(C4)C2)C3)cc1
94 to 95 | C#CCOC(=O)C=C(C)C=CC=C(C)C=Cc1c(C)cc(OC)c(C)c1C
186 | CCS(=O)(=O)Cc1ccc(Oc2ccc(NC(C)=O)cc2)cc1
298 to 302 | OC1(F)CC(c2ccccc2)=Nc2ccccc21 (stereo unspecified)
190 to 192 | COc1ccc(COc2c(O)cc3c(c2Cl)CCN(C(=O)OC(C)(C)C)CC3c2ccc(O)cc2)cc1 (stereo unspecified)
219 to 220 | CCc1nc2c(N)nc3cc(OCC(=O)N4CCOCC4)ccc3c2n1CC(C)C
136 to 137 | C=NOCc1ccc(CCc2csc(NC(C)=O)n2)cc1
176 to 177 | O=C(O)COc1ccc(C(=C2SCCCS2)c2ccccc2)cc1
250 to 252 | Nc1c(F)c(N2CCC(c3cccnc3)C2)c(F)c2c1c(=O)c(C(=O)O)cn2C1CC1 (stereo unspecified)
166 to 168 | O=S(=O)(c1ccc(O)cc1)c1c(-c2ccccc2)oc2ccccc12
184 to 185 | CCCC(=O)c1cnc2c(OC)nccc2c1OS(C)(=O)=O
129 to 131 | CC(C(=O)O)c1ccc(-c2ccc(F)cc2)c(Br)c1 (stereo unspecified)
114 to 115 | O=C(CCN1CCCC1)Nc1cc(-c2nnc(SCc3cccc(F)c3)o2)ccn1
> 250 | COc1ccc(-c2ccn3c(=O)c(C(=O)O)ccc3c2)cc1
93 to 96 | CON=C(C1=NOCCO1)c1ccccc1CCl
166 to 176 | CC(C)CC(=O)Nc1ccc(-c2ccncc2)cc1
148 to 150 | Nc1ccccc1NC(=O)c1ccc(C(=O)Nc2cccc(Nc3nc(-c4cccnc4)cs3)c2)cn1

melting point [°C] | Compound
131 | CCN(CC(=O)O)Cc1cc(/C(=N\O)c2cccc(Br)c2)ccc1[N+](=O)[O-]
130 to 131 | CCOC(=O)C(C(=O)OCC)c1cccc(C(=O)c2ccccc2)c1[N+](=O)[O-]
85 to 90 | CCNS(=O)(=O)c1ccc(Cl)c(C)c1C#N
221 to 222 | O=c1[nH][nH]c(=O)n1-c1c(F)cc(F)cc1F
277 to 279 | O=C1Nc2c(ccc3ccccc23)SC1=Cc1ccc(Cl)cc1
132 to 133 | CCC(CC)(CCCCS(N)(=O)=O)COc1nn2ncnc2cc1C
210 | Cn1ncc(C(=O)N2CCCC2)c1C(=O)Nc1ccc2nc(-c3ccccc3)nn2c1
36.5 to 37 | CCOC(=O)C(S)C(=S)Cc1ccc(Cl)cc1 (stereo unspecified)
109 to 110 | CCCCSc1cn(C)cc(-c2cccc(C(F)(F)F)c2)c1=O
103 to 105 | CC(NO)c1ccc2c(c1)Sc1cc(Cl)ccc1O2 (stereo unspecified)
107 to 108 | ClCc1coc(C=C(c2ccccc2)c2ccccc2)n1
102 to 103 | CCC(=CC(CSc1nc2ccccc2s1)=NO)C(C)[N+](=O)[O-] (stereo unspecified)
241 | COc1cc(-c2nc(NC(=O)c3cc4cc(C)cc(C)c4n3CC(=O)O)sc2CCC2CCCCC2)c(OC)cc1Cl
200 to 201 | C=C(C)c1cc(S(=O)(=O)c2ccc(N)cc2)cc(N2CCCC2)n1
134 to 137 | O=C1C(=C(O)Cc2ccccc2)SC(=S)N1c1ccc(Cl)cc1
219 to 221 | CCC(=O)N1Cc2cn[nH]c2-c2cc([N+](=O)[O-])ccc21
169 to 170 | O=C(O)[C@H](Cc1ccc(F)cc1)[C@@H](O)c1ccc(F)cc1 (racemic)
210 to 212 | NC(=NO)c1ccc(Cn2ccc(OCc3ccccc3)c(Br)c2=O)cc1
173 to 174 | O=S(Cc1ccccn1)c1nc2cc3c(cc2[nH]1)CCC3 (stereo unspecified)
152 to 154 | Cc1nc2c(s1)-c1nc(NCc3ccccc3)ncc1CC2
55.5 to 57.5 | CCCCCCCCCCCCCCCCCCN(CCCCCCCCCCCCCCCCCC)c1ccc([N+](=O)[O-])cc1[N+](=O)[O-]
39 to 41 | N#CCc1ccc(OC(F)F)c(OC2CCCC2)c1
125 to 127 | COc1ccc2c(c1)C(C(=O)N(Cc1ccc(OCC(F)(F)F)cc1)c1ccc(C(C)C)cc1)CCC2 (stereo unspecified)

melting point [°C] | Compound
203 to 205 | Cc1cc(NC(=O)c2c(Cl)cccc2Cl)c2nccc(Cl)c2c1
188 to 190 | Nc1nc(OC2CCCC2)c2ncn(C3C=CC(CO)C3)c2n1 (stereo unspecified)
156 to 157 | CC(O)c1cnc2cc(Oc3cc(-c4ccc(C(F)(F)F)cc4)ncn3)ccc2c1 (stereo unspecified)
231 | CC(=O)C1=C(O)C(=C(C)Nc2cc(NC(=O)C(O)CO)cc(NC(=O)C(O)CO)c2)C(=O)OC1=O (stereo unspecified)
138 to 142 | CCN(CC)CCOc1ccc(-c2sc3ccccc3c2C(=O)c2cc(C)cc(C)c2)cc1
114 | Cc1cccc(C)c1OCC1CN=C(N)O1 (stereo unspecified)
164 to 166 | O=C(O)C(=O)C12CC3CC(CC(O)(C3)C1)C2
230 to 232 | CC(C)(C)OC(=O)N1CCc2cc(NC(=O)NCc3ccc4c(c3)CN(C3CCC(=O)NC3=O)C4=O)ccc2C1 (stereo unspecified)
145 to 147 | O=C(NCC12CC3CC(CC(C3)C1)C2)c1cc(CC[C@H](O)CO)ccc1Cl
186 to 187 | O=C(O)CSCc1nccc2ccccc12
186 to 190 | NS(=O)(=O)c1ccc(-c2c(-c3ccccc3)noc2CCO)cc1
129 | Cn1cc([N+](=O)[O-])nc1C=O
173 to 175 | CCC(=Nc1ccc2nc(N3CCN(C)CC3)c(N3CCN(C)CC3)nc2c1)N(C)C
162 to 163 | O=C(NN1CCCCC1)c1nc(-c2ccc(Cl)cc2Cl)n(-c2ccc(Cl)cc2)c1CF
258 | N#CC(=Cc1ccc(O)c(O)c1)C(=O)Nc1ccccc1
133 to 135 | Fc1cccc(C2OC3(CCNCC3)N3CCCCC23)c1 (stereo unspecified)
72 | Nc1cc(Oc2ccccc2)ccc1[N+](=O)[O-]
85 to 90 | Cc1ccc(Cl)c(C(=O)c2ccc(Cl)cc2)c1
192 to 194 | COc1ccc(-c2cncc(C#N)c2Oc2ccc3[nH]ccc3c2)cc1OC
77 to 78 | CC(=NOCCO)c1ccc(S(=O)(=O)c2ccccc2)nc1
113 to 114 | CCc1nc(Cl)c(Oc2cc(OC)ccc2Cl)c(Cl)n1
201 to 203 | COc1ccc(-n2nc(C#N)cc2-c2ccc(S(C)(=O)=O)cc2)cc1Cl
197 | Cc1ccc2c(c1)OCC(=O)N2

Compound | melting point [°C]
COc1cc(C(C)=O)ccc1OCCN1C2CCC1CC(c1n[nH]c3cc(F)ccc13)C2 (stereo unspecified) | 151 to 152
O=C(O)c1ccc2[nH]cc(CCCCN3CC=C(c4ccccc4)CC3)c2c1 | 284 to 285
